Assay results taken from US20240360107A1, “AN EIF4A INHIBITOR WITH A NOVEL MECHANISM OF ACTION” (ARIZONA BOARD OF REGENTS ON BEHALF OF THE UNIVERSITY OF …, priority 2021, published 2024).

Columns and labels:
[1] = target: T1, eIF4A R311E mutant (Homo sapiens, UniProt P60842, R311E); assay: malachite green ATPase assay, eIF4A mutant; format: biochemical
T1 construct: 6xHis with TEV protease site (N, cleaved yes); made in house; host or cells: E. coli BL21-CodonPlus
From the text: (§1) Furthermore, eIF4A R311K and R311E mutants were produced and tested with compound 28. As expected, compound 28 had no potency toward R311E, as the positively charged arginine is replaced with a negatively charged glutamic acid that repels the carboxylic acid of compound 28. However, compound 28 also had no potency for eIF4A R311K, even though it still maintains its positive charge. This may be attributed to the inability of this lysine to simultaneously provide hydrogen bond donation and ionic interactions to compound 28 due to geometrical constraints. The molecular docking also predicted that the furan of 28 may form a hydrogen bond with T109, and the butyl group may lie within a small hydrophobic groove within the binding pocket (FIG. 6A). Nevertheless, mutations to R110, T158, and R311 causing drastic losses in potency of compound 28 provided strong evidence that this was the correct binding pocket and pose for compound 28. This site, wedged between each RecA-like domain of eIF4A, is a novel binding pocket that has never been accessed by an eIF4A inhibitor.
(§2) ATPase assay. Recombinant WT or mutant eIF4A was added to a clear bottom 384 well plate (Greiner) in ATPase buffer (20 mM Tris pH 7.4, 80 mM KCl, 2.5 mM MgCl2, 1 mM DTT, 1% glycerol). […] The solution was incubated for 5 minutes at room temperature and Absorbance at 660 nm was read on a SpectraMax iD5 plate reader (Molecular Devices).

[2] = target: T2, eIF4A R311K mutant (Homo sapiens, UniProt P60842, R311K); assay: malachite green ATPase assay, eIF4A mutant; format: biochemical
T2 construct: 6xHis with TEV protease site (N, cleaved yes); made in house; host or cells: E. coli BL21-CodonPlus
T2 sequence (P60842 whole entry R311K): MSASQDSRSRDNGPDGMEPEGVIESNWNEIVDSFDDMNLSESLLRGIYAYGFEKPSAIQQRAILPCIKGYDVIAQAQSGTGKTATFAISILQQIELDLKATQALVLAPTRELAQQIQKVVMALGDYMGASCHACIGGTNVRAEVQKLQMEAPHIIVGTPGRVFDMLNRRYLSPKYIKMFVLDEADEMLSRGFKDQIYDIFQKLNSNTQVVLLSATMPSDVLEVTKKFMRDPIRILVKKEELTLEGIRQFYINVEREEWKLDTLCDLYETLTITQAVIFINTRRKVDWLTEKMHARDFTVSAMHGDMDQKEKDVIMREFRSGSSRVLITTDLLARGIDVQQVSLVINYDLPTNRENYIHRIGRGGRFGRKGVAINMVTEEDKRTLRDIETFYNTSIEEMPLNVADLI
From the text: as §1, §2

[3] = test system: HCV IRES-dependent translation of Renilla luciferase; assay: in vitro translation of bicistronic luciferase reporter in rabbit reticulocyte lysate, Renilla luciferase; format: biochemical; conditions: Cycloheximide 600 μM, Silvestrol 100 nM
From the text: A bicistronic luciferase reporter ([…]) (FIG. 7B, top) was programmed into rabbit reticulocyte lysates, cellular extracts capable of performing both cap-dependent and Hepatitis C virus (HCV) internal ribosomal entry site (IRES)-mediated translation. eIF4A is the enzymatic driver of cap-dependent translation and is not involved in translation through HCV IRES. Compounds that inhibit eIF4A should inhibit cap-dependent translation of firefly (FF) luciferase while leaving IRES-mediated translation of Renilla (Ren) luciferase relatively unaffected. The inhibitory activities of cycloheximide, silvestrol, and 28 were assessed in this in vitro translation assay (FIG. 7B, bottom). […] The ability of compound 28 to preferentially target cap-dependent translation in a similar manner as silvestrol provides promising evidence that 28 inhibits eIF4A and not other proteins in the general translational machinery.
The dual-luciferase reporter plasmid pSP/(CAG)33/FF/HCV/Ren-pA51 was linearized with BamHI and subsequently in vitro transcribed using the Promega mMessage mMachine SP6 transcription kit, according to manufacturer's specifications. RNA was precipitated with LiCI and resuspended in H2O for use in in vitro translation experiments. Rabbit reticulocyte lysate (RRL) (nuclease-treated, Promega) was used to assess inhibitory effects of 28 on translation of the dual-reporter. Briefly, a reaction consisting of 50% RRL, 30 ng/μL reporter RNA, 10 μM Amino Acid Mixture Minus Methionine, 10 μM Amino Acid Mixture Minus Leucine, […], 1 U/μL RNAseOut (Thermo), and drug (final DMSO concentration 1%) were incubated at 30° C. for 90 minutes. The reaction was quenched with 50 μL 1× Passive Lysis Buffer (Promega), 10 μL of the mix was transferred to a 96-well white plate (Cellstar), and the Dual-Reporter Luciferase Assay System (Promega) was used to generate luminescence according to the manufacturer's instructions. Luminescence was detected using a plate reader (BioTek HT Synergy).

[4] = target: eIF4A (Homo sapiens, UniProt P60842); assay: MANT-ATP fluorescence polarization assay; format: binding; parameters: 6xHis with TEV protease site (N, cleaved yes); made in house; host or cells: E. coli BL21-CodonPlus; conditions: compound 200 μM or ADP 1 mM; MANT-ATP 100 nM
Sequence of eIF4A (P60842 whole entry): as the sequence (P60842 whole entry R311K) above, with K311R counted along it
Description: Additional biochemical testing was performed on compound 28 to investigate its mechanism of eIF4A inhibition. Initially, kinetics experiments were repeated with compound 28, and the results for compound 28 matched those of compound 1 (FIG. 5D, 4A). Upon addition of compound 28, Km and Vmax of eIF4A decreased with respect to ATP. With respect to RNA, eIF4A Km […] and Vmax remained constant. […] Fluorescence polarization (FP) assays were utilized to confirm this mechanism of inhibition by testing the ability of compound 28 to compete fluorescent substrates off eIF4A. First, an FP assay was performed with MANT-ATP, a fluorescent, non-hydrolysable ATP analog, as the substrate.
MANT-ATP fluorescence polarization assay. Recombinant eIF4A (15 μM) was added to a low-volume black 384 well plate (Greiner). Yeast RNA (0.25 mg/mL) was added along with compound (200 μM) or ADP (1 mM) and the plate was incubated for 20 min. MANT-ATP was added (100 nM) and the plate was incubated for 30 min before fluorescence polarization was read at 355 nm:448 nm (Ex:Em) on a SpectraMax iD5 plate reader (Molecular Devices).

T1 sequence (P60842 whole entry R311E): as the sequence (P60842 whole entry R311K) above, with K311E counted along it

For `CCCCc1ccc(-c2ccc(-c3cc(C(=O)O)c4cc([N+](=O)[O-])ccc4n3)o2)cc1` [Compound 28, 2-(5-(4-butylphenyl)furan-2-yl)-6-nitroquinoline-4-carboxylic acid], the “potency against eIF4A mutant in ATPase assay” value [1] was “no potency”, the “potency against eIF4A mutant in ATPase assay” value [2] was “no potency” and the “effect on HCV IRES-mediated translation (Renilla luciferase)” value [3] was “only show a modest effect on HCV IRES-dependent translation of Renilla luciferase”. For the same molecule, the “competition of MANT-ATP off eIF4A” value [4] was “not an ATP-competitive inhibitor”.
